Laboratory results reported in PMC6768063 (Journal of computer-aided molecular design, 2019).

Tests used:
D2 receptor [1] = target: T1, D2 receptor (Homo sapiens, UniProt P14416); assay: calcium flux assay; type: cell-based; conditions: for EC50: read-out: EC50, agonist effect (calcium flux), D2/CHO-K1 cells, agonist mode
D2 receptor [2] = target: T1, D2 receptor; conditions: cited from earlier work
D1 receptor [3] = target: T2, D1 receptor (Homo sapiens, UniProt P21728); assay: cAMP assay; type: cell-based; conditions: for EC50: read-out: EC50, agonist effect (cAMP production), CHO-K1/D1 cells, agonist mode
T2 sequence (P21728 whole entry): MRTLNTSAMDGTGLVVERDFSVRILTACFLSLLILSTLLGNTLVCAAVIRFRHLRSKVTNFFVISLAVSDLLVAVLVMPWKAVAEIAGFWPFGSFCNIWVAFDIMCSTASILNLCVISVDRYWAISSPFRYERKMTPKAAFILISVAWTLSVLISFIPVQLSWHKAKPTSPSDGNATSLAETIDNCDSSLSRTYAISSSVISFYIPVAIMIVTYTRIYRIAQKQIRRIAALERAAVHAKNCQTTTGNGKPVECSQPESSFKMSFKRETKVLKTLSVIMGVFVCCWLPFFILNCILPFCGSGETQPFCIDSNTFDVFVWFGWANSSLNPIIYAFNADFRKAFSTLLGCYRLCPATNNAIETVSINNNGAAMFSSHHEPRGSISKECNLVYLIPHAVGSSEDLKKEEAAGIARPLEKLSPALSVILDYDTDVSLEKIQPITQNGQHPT

D1 receptor [4] = target: T2, D1 receptor; conditions: cited from earlier work
D2 receptor [5] = target: T1, D2 receptor; conditions: cited from earlier work; remark: listed apart in the source
D3 receptor = conditions: cited from earlier work
5-HT1A receptor = conditions: cited from earlier work

T1 sequence (P14416 whole entry): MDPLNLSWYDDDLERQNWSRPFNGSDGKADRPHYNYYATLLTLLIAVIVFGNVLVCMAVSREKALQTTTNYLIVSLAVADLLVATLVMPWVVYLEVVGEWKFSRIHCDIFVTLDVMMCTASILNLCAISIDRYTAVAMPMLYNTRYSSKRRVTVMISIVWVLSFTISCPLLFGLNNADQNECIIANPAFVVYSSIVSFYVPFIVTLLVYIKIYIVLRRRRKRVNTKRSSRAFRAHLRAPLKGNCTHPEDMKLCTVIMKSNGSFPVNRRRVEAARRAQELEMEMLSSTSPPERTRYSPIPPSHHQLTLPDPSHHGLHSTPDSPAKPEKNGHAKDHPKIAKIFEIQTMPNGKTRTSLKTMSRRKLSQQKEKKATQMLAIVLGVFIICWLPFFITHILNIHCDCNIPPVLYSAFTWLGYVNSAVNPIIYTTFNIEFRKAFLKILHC

Structure (SMILES): CN1CCc2cc(Cl)c(O)cc2[C@@H](c2ccccc2)C1 [SCH23390, reference compound]
- IC50 (D2 receptor [1]): 4.06 µM

Structure (SMILES): COc1cc2c(cc1OC)[C@H]1Cc3ccc(OC)c(OC)c3CN1CC2 [d-THP]
- binding affinity for the D2 receptor (in words) (D2 receptor [2]): low or absent affinity

Structure (SMILES): COc1ccc2c(c1O)CN1CCc3cc4c(cc3C1C2)OCO4 (stereo not drawn) [d-TU, Tetrahydroberberrubine]
- affinity against D1 receptor (in words) (D1 receptor [3]; based on the cAMP assay): no affinity
- EC50 (D1 receptor [3]): > 10 µM
- affinity against D2 receptor (in words) (D2 receptor [1]; based on the calcium flux assay): no affinity
- EC50 (D2 receptor [1]): > 10 µM

Structure (SMILES): COc1cc2c(cc1OC)[C@@H]1Cc3ccc(OC)c(OC)c3CN1CC2 [l-THP, l-tetrahydropalmatine]
- binding affinity for the D2 receptor (in words) (D2 receptor [2]): high binding affinity

Structure (SMILES): COc1ccc2c(c1O)CN1CCc3cc4c(cc3C1C2)OCO4 (stereo not drawn) [l-TU, Tetrahydroberberrubine]
- EC50 (D1 receptor [3]): > 10 µM
- EC50 (D2 receptor [1]): > 10 µM
- binding affinity for D1 receptor (in words) (D1 receptor [4]): high binding affinities
- binding affinity for D2 receptor (in words) (D2 receptor [5]): high binding affinities
- binding affinity for D3 receptor (in words) (D3 receptor): high binding affinities
- binding affinity for 5-HT1A receptor (in words) (5-HT1A receptor): high binding affinities
